This is an account of results in patent US10919877B2, “Multifunctional inhibitors of MEK/PI3K and mTOR/MEK/PI3K biological pathways and therapeutic methods using the same” (THE REGENTS OF THE UNIVERSITY OF MICHIGAN, priority 2016, dated 2021).

Like-named read-outs stand apart in the source and are kept apart here.

In one test the target is T1, PI3Kα (Homo sapiens, UniProt P42336).
T1 construct: purchased Life Technologies (assay run by the vendor)
The test is described as follows: PI3K subtype enzyme inhibition. The class given is biochemical.

The target of a further test is T2, PI3Kβ (Homo sapiens, UniProt P42338).
T2 construct: purchased Life Technologies (assay run by the vendor)
The test is described as follows: PI3K subtype enzyme inhibition. Format: biochemical.

The target of another test is T3, PI3Kγ (Homo sapiens, UniProt P48736).
T3 construct: purchased Life Technologies (assay run by the vendor)
The test is described as follows: PI3K subtype enzyme inhibition. Format: biochemical.

The target in another test is T4, PI3Kδ (Homo sapiens, UniProt O00329).
T4 construct: purchased Life Technologies (assay run by the vendor)
The test is described as follows: PI3K subtype enzyme inhibition. The class given is biochemical.

The target in another test is mTOR (Homo sapiens, UniProt P42345). The test is described as follows: mTOR enzyme inhibition. The class given is biochemical.
Test [1] has as its system A375 (melanoma), D54 (glioma), CT26 colorectal cancer, A2058 (melanoma) cell lines. The test is described as follows: Concurrent inhibition in tumor cell lines (multifunctional inhibitors). The class given is cell-based. An excerpt:
The synthesis of another series of single entity, multifunctional inhibitors achieved by covalent linking of structural analogs of a PI3K inhibitor mTOR inhibitor, and an MEK inhibitor is also disclosed.

The mark [2] stands for this setting: read-out: PI3K Subtype Enzyme Inhibition Data IC50 PI3Kα.
The mark [3] stands for this setting: table of additional PI3K inhibitors, read-out: PI3Kα IC50.
[4] abbreviates: read-out: PI3K Subtype Enzyme Inhibition Data IC50 PI3Kβ.
Setting [5] is: table of additional PI3K inhibitors, read-out: PI3Kβ IC50.
[6] abbreviates: read-out: PI3K Subtype Enzyme Inhibition Data IC50 PI3Kγ.
The mark [7] stands for this setting: table of additional PI3K inhibitors, read-out: PI3Kγ IC50.
The mark [8] stands for this setting: read-out: PI3K Subtype Enzyme Inhibition Data IC50 PI3Kδ.
Setting [9] is: table of additional PI3K inhibitors, read-out: PI3Kδ IC50.

T4 sequence (O00329 whole entry): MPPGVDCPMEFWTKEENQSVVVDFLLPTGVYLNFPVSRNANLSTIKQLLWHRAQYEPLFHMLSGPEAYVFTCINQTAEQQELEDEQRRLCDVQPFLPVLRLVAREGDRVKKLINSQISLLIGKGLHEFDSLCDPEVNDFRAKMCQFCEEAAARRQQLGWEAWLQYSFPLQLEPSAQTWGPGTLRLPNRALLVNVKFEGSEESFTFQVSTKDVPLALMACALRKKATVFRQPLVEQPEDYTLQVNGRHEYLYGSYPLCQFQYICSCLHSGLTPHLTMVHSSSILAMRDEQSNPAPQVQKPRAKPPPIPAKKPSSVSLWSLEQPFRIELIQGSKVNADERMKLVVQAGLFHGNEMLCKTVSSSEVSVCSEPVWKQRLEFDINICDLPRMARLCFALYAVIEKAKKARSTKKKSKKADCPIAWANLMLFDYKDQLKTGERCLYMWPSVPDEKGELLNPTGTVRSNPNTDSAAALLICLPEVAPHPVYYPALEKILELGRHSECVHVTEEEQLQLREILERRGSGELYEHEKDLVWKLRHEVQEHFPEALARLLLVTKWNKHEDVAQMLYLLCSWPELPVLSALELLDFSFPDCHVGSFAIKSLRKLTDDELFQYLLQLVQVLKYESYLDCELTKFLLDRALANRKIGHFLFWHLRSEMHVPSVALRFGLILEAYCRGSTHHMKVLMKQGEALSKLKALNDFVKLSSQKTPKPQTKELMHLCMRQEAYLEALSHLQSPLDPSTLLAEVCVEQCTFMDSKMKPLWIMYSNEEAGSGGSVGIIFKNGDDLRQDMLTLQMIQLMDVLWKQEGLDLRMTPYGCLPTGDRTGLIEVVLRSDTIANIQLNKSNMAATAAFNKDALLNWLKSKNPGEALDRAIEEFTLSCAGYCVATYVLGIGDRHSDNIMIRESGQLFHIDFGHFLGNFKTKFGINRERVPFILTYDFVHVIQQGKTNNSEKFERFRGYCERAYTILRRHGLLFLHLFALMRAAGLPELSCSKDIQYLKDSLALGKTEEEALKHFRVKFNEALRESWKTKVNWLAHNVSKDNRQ
T4 sequence (P27986 whole entry partner): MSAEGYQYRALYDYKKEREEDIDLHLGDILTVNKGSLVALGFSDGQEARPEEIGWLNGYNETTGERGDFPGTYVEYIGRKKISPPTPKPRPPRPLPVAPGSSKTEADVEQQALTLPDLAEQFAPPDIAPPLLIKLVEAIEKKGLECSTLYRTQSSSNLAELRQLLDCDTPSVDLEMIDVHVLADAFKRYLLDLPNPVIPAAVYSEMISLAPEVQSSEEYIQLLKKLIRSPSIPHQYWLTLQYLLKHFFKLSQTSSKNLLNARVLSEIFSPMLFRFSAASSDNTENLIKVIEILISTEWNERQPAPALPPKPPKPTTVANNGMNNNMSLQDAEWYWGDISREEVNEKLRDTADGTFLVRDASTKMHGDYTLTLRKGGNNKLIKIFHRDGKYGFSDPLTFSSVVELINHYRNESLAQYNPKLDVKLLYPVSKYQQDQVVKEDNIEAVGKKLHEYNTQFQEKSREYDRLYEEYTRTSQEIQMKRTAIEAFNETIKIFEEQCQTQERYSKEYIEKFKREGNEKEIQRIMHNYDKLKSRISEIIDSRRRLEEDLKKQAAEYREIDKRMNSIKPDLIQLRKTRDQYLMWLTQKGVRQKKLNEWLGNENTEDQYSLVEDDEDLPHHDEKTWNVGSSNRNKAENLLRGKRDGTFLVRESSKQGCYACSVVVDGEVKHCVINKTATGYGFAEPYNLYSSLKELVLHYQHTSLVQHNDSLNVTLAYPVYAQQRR
T1 sequence (P42336 whole entry): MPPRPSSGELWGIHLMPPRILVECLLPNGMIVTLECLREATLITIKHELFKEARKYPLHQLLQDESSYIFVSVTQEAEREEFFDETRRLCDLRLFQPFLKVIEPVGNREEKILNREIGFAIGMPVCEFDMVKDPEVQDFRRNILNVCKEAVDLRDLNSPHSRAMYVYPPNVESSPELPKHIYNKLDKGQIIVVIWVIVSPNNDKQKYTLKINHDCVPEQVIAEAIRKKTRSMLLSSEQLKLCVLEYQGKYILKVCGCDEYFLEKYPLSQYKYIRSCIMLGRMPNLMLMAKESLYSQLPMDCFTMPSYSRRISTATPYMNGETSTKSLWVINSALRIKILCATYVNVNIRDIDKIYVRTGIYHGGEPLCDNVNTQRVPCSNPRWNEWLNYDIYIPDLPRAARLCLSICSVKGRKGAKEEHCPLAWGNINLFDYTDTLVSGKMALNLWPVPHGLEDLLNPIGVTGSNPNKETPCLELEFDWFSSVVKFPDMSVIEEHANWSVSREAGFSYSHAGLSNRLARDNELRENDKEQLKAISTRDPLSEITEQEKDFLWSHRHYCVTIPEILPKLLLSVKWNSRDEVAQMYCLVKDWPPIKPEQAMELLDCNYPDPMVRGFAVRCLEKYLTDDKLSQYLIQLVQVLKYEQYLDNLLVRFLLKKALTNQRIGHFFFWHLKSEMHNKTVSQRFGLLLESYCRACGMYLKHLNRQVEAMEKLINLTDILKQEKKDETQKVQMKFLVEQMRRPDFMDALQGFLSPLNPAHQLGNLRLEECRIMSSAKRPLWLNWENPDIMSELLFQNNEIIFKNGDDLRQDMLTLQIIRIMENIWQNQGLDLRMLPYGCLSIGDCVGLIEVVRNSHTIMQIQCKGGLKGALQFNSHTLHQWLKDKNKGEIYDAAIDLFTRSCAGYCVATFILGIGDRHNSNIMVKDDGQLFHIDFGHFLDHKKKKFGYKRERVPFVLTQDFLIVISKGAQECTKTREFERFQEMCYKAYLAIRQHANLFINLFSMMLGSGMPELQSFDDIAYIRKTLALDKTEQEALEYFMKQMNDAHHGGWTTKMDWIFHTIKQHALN
T1 sequence (P27986 whole entry partner): as the sequence (P27986 whole entry partner) above
T3 sequence (P48736 whole entry): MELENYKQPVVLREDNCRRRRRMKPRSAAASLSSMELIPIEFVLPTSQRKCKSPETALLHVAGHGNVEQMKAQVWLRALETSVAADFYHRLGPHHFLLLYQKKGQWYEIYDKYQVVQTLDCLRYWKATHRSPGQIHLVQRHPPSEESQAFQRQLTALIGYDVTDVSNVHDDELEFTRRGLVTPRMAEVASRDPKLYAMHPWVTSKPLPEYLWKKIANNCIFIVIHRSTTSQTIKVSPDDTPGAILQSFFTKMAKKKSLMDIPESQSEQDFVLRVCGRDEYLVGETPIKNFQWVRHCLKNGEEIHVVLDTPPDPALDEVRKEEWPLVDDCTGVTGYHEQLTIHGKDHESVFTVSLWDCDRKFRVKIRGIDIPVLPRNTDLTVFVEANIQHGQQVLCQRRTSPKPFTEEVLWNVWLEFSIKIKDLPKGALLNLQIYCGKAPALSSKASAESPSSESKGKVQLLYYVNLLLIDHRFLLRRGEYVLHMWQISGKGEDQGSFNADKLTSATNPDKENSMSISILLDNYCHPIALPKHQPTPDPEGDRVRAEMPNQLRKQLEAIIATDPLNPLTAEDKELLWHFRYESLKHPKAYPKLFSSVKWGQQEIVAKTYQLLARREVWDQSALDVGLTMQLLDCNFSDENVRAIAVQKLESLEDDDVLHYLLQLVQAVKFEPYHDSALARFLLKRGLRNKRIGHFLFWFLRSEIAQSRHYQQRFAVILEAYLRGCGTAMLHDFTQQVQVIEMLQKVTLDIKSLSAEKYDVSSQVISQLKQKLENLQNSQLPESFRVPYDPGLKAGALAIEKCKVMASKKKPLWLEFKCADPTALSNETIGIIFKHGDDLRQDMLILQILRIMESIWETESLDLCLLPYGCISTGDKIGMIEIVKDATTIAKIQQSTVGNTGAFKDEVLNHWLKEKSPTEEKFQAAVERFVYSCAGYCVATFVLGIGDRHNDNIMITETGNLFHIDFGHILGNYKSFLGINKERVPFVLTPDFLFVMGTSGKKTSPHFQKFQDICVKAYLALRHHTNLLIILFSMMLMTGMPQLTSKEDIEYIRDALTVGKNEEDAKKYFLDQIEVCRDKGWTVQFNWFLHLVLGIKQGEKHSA
T2 sequence (P42338 whole entry): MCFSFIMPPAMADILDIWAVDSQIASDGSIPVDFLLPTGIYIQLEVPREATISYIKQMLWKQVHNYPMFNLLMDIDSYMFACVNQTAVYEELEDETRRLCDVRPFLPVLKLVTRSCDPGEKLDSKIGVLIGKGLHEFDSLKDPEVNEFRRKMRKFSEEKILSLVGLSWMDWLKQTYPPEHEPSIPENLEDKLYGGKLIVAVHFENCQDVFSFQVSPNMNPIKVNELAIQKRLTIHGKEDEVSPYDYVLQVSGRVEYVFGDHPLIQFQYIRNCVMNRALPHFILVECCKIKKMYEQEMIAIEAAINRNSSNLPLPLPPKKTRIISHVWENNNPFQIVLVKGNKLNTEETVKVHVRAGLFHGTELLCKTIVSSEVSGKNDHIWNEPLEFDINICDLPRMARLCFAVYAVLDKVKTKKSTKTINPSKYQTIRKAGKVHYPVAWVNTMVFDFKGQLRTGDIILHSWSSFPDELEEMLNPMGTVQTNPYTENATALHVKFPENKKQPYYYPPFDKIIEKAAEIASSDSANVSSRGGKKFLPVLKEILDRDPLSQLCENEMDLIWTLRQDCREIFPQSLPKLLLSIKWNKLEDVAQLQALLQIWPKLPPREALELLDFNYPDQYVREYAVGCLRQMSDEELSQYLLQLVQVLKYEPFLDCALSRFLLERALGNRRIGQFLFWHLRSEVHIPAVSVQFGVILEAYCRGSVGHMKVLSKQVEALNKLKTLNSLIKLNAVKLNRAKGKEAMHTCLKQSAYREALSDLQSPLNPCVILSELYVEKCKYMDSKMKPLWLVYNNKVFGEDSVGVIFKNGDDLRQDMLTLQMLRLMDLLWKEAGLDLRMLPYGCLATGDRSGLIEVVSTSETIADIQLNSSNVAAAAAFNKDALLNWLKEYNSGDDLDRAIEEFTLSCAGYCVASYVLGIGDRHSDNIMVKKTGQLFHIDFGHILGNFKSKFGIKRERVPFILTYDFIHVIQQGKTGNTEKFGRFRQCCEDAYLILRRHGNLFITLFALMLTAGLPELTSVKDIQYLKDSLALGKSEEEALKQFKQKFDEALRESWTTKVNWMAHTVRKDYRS
T2 sequence (P27986 whole entry partner): as the sequence (P27986 whole entry partner) above

In the case of `O=C(NOCCOCCOCCOCCC(=O)N1CCN(c2cnc3ccc(-c4cnc(Cl)c(NS(=O)(=O)c5ccc(F)cc5)c4)cc3n2)CC1)c1ccc(F)c(F)c1Nc1ccc(I)cc1F` [ST-182], the IC50 on PI3Kα (read-out: PI3Kα IC50) stood at 0.002 ± 0.0003 µM; on PI3Kβ (read-out: PI3Kβ IC50), 0.467 ± 0.044 µM; at PI3Kγ (read-out: PI3Kγ IC50) it was 0.0341 ± 0.003 µM; on PI3Kδ (read-out: PI3Kδ IC50), 0.00422 ± 0.00064 µM; against mTOR, 0.0531 ± 0.0025 µM.

Turning to `O=C(O)CCNc1nc(N2CCOCC2)nc(-n2c(C(F)F)nc3ccccc32)n1` [ST-5-25], the IC50 stood at 0.0124 ± 0.0007 µM on PI3Kα (setting [2]); 0.0124 ± 0.0007 µM at PI3Kα (setting [3]); 0.787 ± 0.106 µM at PI3Kβ (setting [4]); 0.787 ± 0.106 µM on PI3Kβ (setting [5]); 0.0223 ± 0.0007 µM at PI3Kγ (setting [6]); 0.0223 ± 0.0007 µM at PI3Kγ (setting [7]). Further, the IC50 at PI3Kδ (setting [8]) and at PI3Kδ (setting [9]) was 0.06 ± 0.0034 µM throughout.

Consider `CNCCNc1nc(N2CCOCC2)nc(-n2c(C(F)F)nc3ccccc32)n1` [ST-5-02], for which the IC50 on PI3Kα (setting [2]) is 0.248 ± 0.024 µM; at PI3Kα (setting [3]), 0.248 ± 0.024 µM; at PI3Kβ (setting [4]), 2.9 ± 0.375 µM; at PI3Kβ (setting [5]), 2.9 ± 0.375 µM; on PI3Kγ (setting [6]), 0.681 ± 0.09 µM; on PI3Kγ (setting [7]), 0.681 ± 0.09 µM. Also, the IC50 on PI3Kδ (setting [8]) and at PI3Kδ (setting [9]) was 0.135 ± 0.019 µM each time.

In the case of `NOCCOCCOCCOCCC(=O)N1CCN(c2nc(N3CCOCC3)nc(-n3c(C(F)F)nc4ccccc43)n2)CC1` [ST-167], the IC50 was 0.214 ± 0.049 µM on PI3Kβ (setting [4]), 0.214 ± 0.049 µM at PI3Kβ (setting [5]), 0.14 ± 0.0066 µM at PI3Kγ (setting [6]) and 0.14 ± 0.0066 µM on PI3Kγ (setting [7]).

In the case of `CN(CCOCCOCCONC(=O)c1ccc(F)c(F)c1Nc1ccc(I)cc1F)CC[N+](C)(C)CCOCCOCCC(=O)N1CCN(c2nc(N3CCOCC3)nc(-n3c(C(F)F)nc4ccccc43)n2)CC1` [ST-5-05], the IC50 at PI3Kα (setting [2]) worked out at 0.039 ± 0.002 µM; on PI3Kβ (setting [4]), 2.52 ± 0.557 µM; at PI3Kγ (setting [6]) it was 2.59 ± 0.66 µM; on PI3Kδ (setting [8]) it was 0.056 ± 0.013 µM.

For `FC(F)c1nc2ccccc2n1-c1nc(N2CCNCC2)nc(N2CCOCC2)n1`, the IC50 turned out to be 1.09 ± 0.168 µM on PI3Kβ (mean ± SEM, read-out: PI3K Subtype Inhibition Activity PI3Kβ) and 1.87 ± 0.283 µM on PI3Kγ (mean ± SEM, read-out: PI3K Subtype Inhibition Activity PI3Kγ).

Turning to `CC(=O)N1CCN(c2nc(N3CCOCC3)nc(-n3c(C(F)F)nc4ccccc43)n2)CC1` [ST-5-03], the IC50 on PI3Kβ (setting [4]) came to 0.0143 ± 0.0025 µM; at PI3Kβ (setting [5]) it was 0.0143 ± 0.0025 µM; on PI3Kγ (setting [6]), 0.021 ± 0.001 µM; on PI3Kγ (setting [7]), 0.021 ± 0.001 µM.

Consider `CN(CCOCCOCCONC(=O)c1ccc(F)c(F)c1Nc1ccc(I)cc1F)CCN(C)CCOCCOCCC(=O)N1CCN(c2nc(N3CCOCC3)nc(-n3c(C(F)F)nc4ccccc43)n2)CC1` [ST-180], for which the IC50 at PI3Kα (setting [2]) came out at 0.039 ± 0.009 µM; at PI3Kβ (setting [4]), 2.21 ± 0.425 µM; at PI3Kγ (setting [6]), 0.717 ± 0.136 µM; on PI3Kδ (setting [8]) it was 0.052 ± 0.0014 µM. The “Concurrent inhibition in tumor cell lines” value in test [1] is given as “Concurrent inhibition was demonstrated”.

Turning to `OCCNc1nc(N2CCOCC2)nc(-n2c(C(F)F)nc3ccccc32)n1` [ST-187], the IC50 was 0.0099 ± 0.0012 µM at PI3Kα (setting [2]); 0.0099 ± 0.0012 µM on PI3Kα (setting [3]); 0.071 ± 0.008 µM on PI3Kβ (setting [4]); 0.071 ± 0.008 µM at PI3Kβ (setting [5]); 0.054 ± 0.001 µM on PI3Kγ (setting [6]); 0.054 ± 0.001 µM at PI3Kγ (setting [7]). The IC50 at PI3Kδ (setting [8]) and at PI3Kδ (setting [9]) was 0.0081 ± 0.0017 µM throughout.

On to `O=S(=O)(Nc1cc(-c2ccc3ncc(N4CCNCC4)nc3c2)cnc1Cl)c1ccc(F)cc1` [ST-5-27], for which the IC50 was < 0.000495 µM on PI3Kα (read-out: PI3Kα IC50); 0.477 ± 0.00092 µM at PI3Kβ (read-out: PI3Kβ IC50); 0.514 ± 0.00023 µM at PI3Kγ (read-out: PI3Kγ IC50); 0.00083 ± 6e-05 µM at PI3Kδ (read-out: PI3Kδ IC50); 0.00597 ± 0.00027 µM on mTOR.

Take `COCCNc1nc(N2CCOCC2)nc(-n2c(C(F)F)nc3ccccc32)n1` [ST-178]: the IC50 at PI3Kα (setting [2]) turned out to be 0.02 ± 0.003 µM; on PI3Kα (setting [3]), 0.02 ± 0.003 µM; at PI3Kβ (setting [4]), 0.208 ± 0.015 µM; at PI3Kβ (setting [5]) it was 0.208 ± 0.015 µM; at PI3Kγ (setting [6]), 0.064 ± 0.005 µM; on PI3Kγ (setting [7]) it was 0.064 ± 0.005 µM. Besides, the IC50 at PI3Kδ (setting [8]) and at PI3Kδ (setting [9]) was 0.017 ± 0.001 µM in each case.

For `NCCNc1nc(N2CCOCC2)nc(-n2c(C(F)F)nc3ccccc32)n1` [ST-177], the IC50 on PI3Kα (setting [2]) is 0.292 ± 0.031 µM; at PI3Kα (setting [3]), 0.292 ± 0.031 µM; on PI3Kβ (setting [4]), 2.12 ± 0.444 µM; at PI3Kβ (setting [5]), 2.12 ± 0.444 µM; on PI3Kγ (setting [6]), 0.771 ± 0.063 µM; at PI3Kγ (setting [7]), 0.771 ± 0.063 µM. The IC50 at PI3Kδ (setting [8]) and on PI3Kδ (setting [9]) was 0.291 ± 0.032 µM throughout.

With `CC(=O)N1CCN(c2cnc3ccc(-c4cnc(Cl)c(NS(=O)(=O)c5ccc(F)cc5)c4)cc3n2)CC1` [ST-5-28], the IC50 on PI3Kα (read-out: PI3Kα IC50) was < 0.000495 µM; on PI3Kβ (read-out: PI3Kβ IC50), 0.00536 ± 0.0011 µM; at PI3Kγ (read-out: PI3Kγ IC50), 0.00071 ± 0.0002 µM; at PI3Kδ (read-out: PI3Kδ IC50), < 0.000495 µM; on mTOR, 0.00313 ± 0.00014 µM.

As for `NOCCOCCOCCOCCC(=O)N1CCN(c2cnc3ccc(-c4cnc(Cl)c(NS(=O)(=O)c5ccc(F)cc5)c4)cc3n2)CC1` [ST-5-29], the IC50 at PI3Kα (read-out: PI3Kα IC50) is < 0.000495 µM; on PI3Kβ (read-out: PI3Kβ IC50) it was 0.00133 ± 0.00059 µM; at PI3Kγ (read-out: PI3Kγ IC50), 0.0302 ± 0.00014 µM; against mTOR, 0.00677 ± 0.00043 µM.

In the case of `CNC(=O)CCNc1nc(N2CCOCC2)nc(-n2c(C(F)F)nc3ccccc32)n1` [ST-5-21], the IC50 came to 0.02 ± 0.0004 µM on PI3Kα (setting [2]); 0.02 ± 0.0004 µM at PI3Kα (setting [3]); 0.431 ± 0.083 µM at PI3Kβ (setting [4]); 0.431 ± 0.083 µM at PI3Kβ (setting [5]); 0.067 ± 0.0028 µM on PI3Kγ (setting [6]); 0.067 ± 0.0028 µM at PI3Kγ (setting [7]). Further, the IC50 on PI3Kδ (setting [8]) and on PI3Kδ (setting [9]) was 0.026 ± 0.0049 µM each time.

For `CC(=O)NCCNc1nc(N2CCOCC2)nc(-n2c(C(F)F)nc3ccccc32)n1` [ST-5-22], the IC50 came to 0.0166 ± 0.0014 µM on PI3Kα (setting [2]), 0.199 ± 0.012 µM on PI3Kβ (setting [4]), 0.054 ± 0.0015 µM at PI3Kγ (setting [6]) and 0.0095 ± 0.0024 µM at PI3Kδ (setting [8]).
